Results published in patent US20230293469A1, “NOVEL PHARMACEUTICAL COMPOSITIONS” (NEUROPRO THERAPEUTICS, INC., priority 2020, published 2023).

How the values were obtained:
[1] = tested on: Dog Microsomes; assay: Metabolite screening of NPT-2042 in dog microsomes; assay type: in vitro ADME; conditions: NPT-2042 10 uM, microsomes 1 mg/mL, 1 hour, NADPH regenerating system
Method: (§1) Incubation of Test Compound in Microsomes • 1. Compound final concentration: 10 uM. • 2. Microsomes concentration 1 mg/mL. • 3. Incubate for 1 hour, with an NADPH regenerating system. • 4. 0.5 mL of incubation mixture at 0 min and 1 hour, mixed with 0.5 mL of acetonitrile. • 5. Vortex, and centrifuge at 13200 rpm for 10 min. • 6. Supernatant was transferred to a clean vial for LCMS analysis NADPH regenerating system (cofactor; consisting of NADP [0.340 mg/mL], G6P [1.56 mg/mL], and G6PDH [0.4 U/mL] solutions) LC-MS/MS Method: • HPLC Column: Agilent, Polaris 3 […], 150×2.0 mm (S/N: 533819), made in Netherlands. • Guard Column: Agilent, MonoChrom 3 C18 MetaGuard, 10×2.0 mm (S/N: 556145) • Column temperature: 40° C. • Mobile Phase A: 5 mM ammonium format in water (Optima) • Mobile Phase B: acetonitrile (Optima) • Flow rate: 0.2 mL/min • Gradient (Table on right) • MS: Thermo Q Exactive Plus.

[2] = tested on: Human Microsomes; assay: Metabolite screening of NPT-2042 in human microsomes; assay type: in vitro ADME; conditions: NPT-2042 10 uM, microsomes 1 mg/mL, 1 hour, NADPH regenerating system
Method: as §1

[3] = tested on: Rat Microsomes; assay: Metabolite screening of NPT-2042 in rat microsomes; assay type: in vitro ADME; conditions: NPT-2042 10 uM, microsomes 1 mg/mL, 1 hour, NADPH regenerating system
Method: as §1

[4] = tested on: Microsomes; assay: Proposed metabolite structures and biotransformation pathways (rat, dog, human microsomes); assay type: in vitro ADME; conditions: for Proposed Biotransformation Pathway: metabolite of NPT-2042 in microsomes
Method: Incubation of Test Compound in Microsomes • 1. Compound final concentration: 10 uM. • 2. Microsomes concentration 1 mg/mL. • 3. Incubate for 1 hour, with an NADPH regenerating system. • 4. 0.5 mL of incubation mixture at 0 min and 1 hour, mixed with 0.5 mL of acetonitrile. • 5. Vortex, and centrifuge at 13200 rpm for 10 min. • 6. Supernatant was transferred to a clean vial for LCMS analysis NADPH regenerating system (cofactor; consisting of NADP [0.340 mg/mL], G6P [1.56 mg/mL], and G6PDH [0.4 U/mL] solutions)
LC-MS/MS Method: • HPLC Column: Agilent, Polaris 3 C18-A, 150×2.0 mm (S/N: 533819), made in Netherlands. • Guard Column: Agilent, MonoChrom 3 C18 MetaGuard, 10×2.0 mm (S/N: 556145) • Column temperature: 40° C. • Mobile Phase A: 5 mM ammonium format in water (Optima) • Mobile Phase B: acetonitrile (Optima) • Flow rate: 0.2 mL/min • Gradient (Table on right) • MS: Thermo Q Exactive Plus.
Summary of Proposed Metabolite Structures and Biotransformation Pathway

[5] = elderly, population-based control study; cited from earlier work
[6] = Oral dose PK of NPT2042 in dog (AUC for absolute bioavailability); assay type: in vivo; conditions: dog
Method: Assays were performed to determine absolute bioavailability of NPT2042 in two species: dog and rat. The calculation of absolute bioavailability depends on four inputs: the areas under the curves (AUC) for oral and IV, and the oral and IV doses.
Testing was conducted to determine AUCs for an oral dose in dog.
Two dogs were each dosed 30 mg/kg NPT2042 orally, on two different days.

[7] = dose level 30 mg/kg NPT2042, Table 4
[8] = dose level 30 mg/kg NPT2042, Table 5

For `CCCCNc1cc(C(=O)NCc2ccccc2)cc(S(N)(=O)=O)c1Oc1ccccc1` [Example M6], which “Dog Mic (MS Intensity)” value [1] is on record?
Its value is 4.12E+07.

And the “Human Mic (MS Intensity)” value [2]?
The value was 3.25E+07.

What about the “Rat Mic (MS Intensity)” value [3] of the same molecule?
The value was 7.96E+07.

What about the “Proposed Biotransformation Pathway” value [4] of the same molecule?
The value was “De-alkylation”.

For `NS(=O)(=O)c1cc(C(=O)O)c(NCc2ccco2)cc1Cl` [furosemide], which “Protective factor for the development of epilepsy” value [5] is on record?
The value was 39%.

With `Nc1cc(C(=O)NCc2ccccc2)cc(S(N)(=O)=O)c1Oc1ccccc1` [Example M1] as the molecule, how does the “Dog Mic (MS Intensity)” value [1] read?
The value was 2.95E+06.

And the “Human Mic (MS Intensity)” value [2]?
Its value is 1.42E+06.

And the “Rat Mic (MS Intensity)” value [3]?
Its value is 1.28E+07.

What about the “Proposed Biotransformation Pathway” value [4] of the same molecule?
Its value is “De-alkylations”.

For `CCCCNc1cc(C(=O)O)cc(S(N)(=O)=O)c1Oc1ccccc1` [Bumetanide, bumetanide, reference compound], which “Bumetanide concentration, Time 0.50 h” value [6, 7] is on record?
Its value is “BQL”.

And the “Bumetanide concentration, Time 1.00 h” value [6, 7]?
The value was “BQL”.

What about the “Bumetanide concentration, Time 2.00 h” value [6, 7] of the same molecule?
The value was “BQL”.

What about the “Bumetanide concentration, Time 4.00 h” value [6, 7] of the same molecule?
The value was “BQL”.

What about the “Bumetanide concentration, Time 6.00 h” value [6, 7] of the same molecule?
Its value is “BQL”.

What about the “Bumetanide concentration, Time 8.00 h” value [6, 7] of the same molecule?
The value was “BQL”.

What about the “Bumetanide concentration, Time 12.00 h” value [6, 7] of the same molecule?
Its value is “BQL”.

What about the “Bumetanide concentration, Time 24.00 h” value [6, 7] of the same molecule?
Its value is “BQL”.

What about the “Bumetanide concentration, Time 0.50 h” value [6, 8] of the same molecule?
The value was “BQL”.

And the “Bumetanide concentration, Time 1.00 h” value [6, 8]?
Its value is “BQL”.

And the “Bumetanide concentration, Time 2.00 h” value [6, 8]?
Its value is “BQL”.

And the “Bumetanide concentration, Time 4.00 h” value [6, 8]?
Its value is “BQL”.

And the “Bumetanide concentration, Time 6.00 h” value [6, 8]?
Its value is “BQL”.

What about the “Bumetanide concentration, Time 8.00 h” value [6, 8] of the same molecule?
The value was “BQL”.

And the “Bumetanide concentration, Time 12.00 h” value [6, 8]?
The value was “BQL”.

What about the “Bumetanide concentration, Time 24.00 h” value [6, 8] of the same molecule?
Its value is “BQL”.

For `Nc1cc(C(=O)N(Cc2ccccc2)Cc2ccccc2)cc(S(N)(=O)=O)c1Oc1ccccc1` [Example M4], which “Dog Mic (MS Intensity)” value [1] is on record?
The value was 3.11E+07.

And the “Human Mic (MS Intensity)” value [2]?
Its value is 2.52E+07.

What about the “Rat Mic (MS Intensity)” value [3] of the same molecule?
The value was 6.53E+07.

And the “Proposed Biotransformation Pathway” value [4]?
The value was “De-alkylation”.

For `O=C(O)Cc1ccccc1Nc1c(Cl)cccc1Cl` [diclofenac, reference compound], which “Metabolism of positive control” value ([4]; microsome incubation) is on record?
Its value is “showed Phase I metabolism”.
